Test results published in article PMC5815658 (Journal of Medicinal Chemistry, 2017).
Values after ≈ are worked out from the molar mass of the structure shown. Read-outs that look alike come from different tables or passages of the source.

Assays:
[1] = molecular target: T1, CRBN-DDB1 complex (Homo sapiens, UniProt Q96SW2); assay: CRBN/DDB1 fluorescence polarization competition assay; format: binding
T1 construct: His6-ZZ-HRV3C (N); made in house; host or cells: Sf9 insect cells (baculovirus co-infection)
Procedure: CRBN/DDB1 Fluorescence Polarization Assay […]
Unless otherwise stated, the aqueous assay buffer contained 0.02 M HEPES((4-(2-hydroxyethyl)-1-piperazineethanesulfonic acid)) pH 8.0, 0.15 M NaCl, 0.5 mM TCEP ((tris(2-carboxyethyl)phosphine)), 0.05% Tween 20. The assay was conducted using 384 well black plates (ProxiPlate F Plus, Perkin-Elmer, Massachusetts, USA).
Plate Reader. […] Fluorescence […]
polarization was measured in units of millipolarization (mP) and are background corrected. Data were plotted and analyzed using […]
All experiments were performed in triplicate unless otherwise stated. Values are quoted as the geometric […]
Each graph is a representative example of a single biological repeat unless otherwise stated.
CRBN/DDB1 Protein Expression & Purification
Protein expression and purification methods adapted from Lopez-Girona et al.5 Full length human CRBN (accession number NM016302) was amplified by PCR & inserted downstream of the polyhedrin promoter of a pFBDM expression vector which had been modified to introduce a N-terminal His6-ZZ-HRV3C tag. Full length human DDB1 (accession number NM001923) was amplified by PCR with primers which introduced a C-terminal StrepTag and inserted downstream of the p10 promoter of a separate pFBDM expression vector. Baculoviruses were generated according to Bac-to-Bac protocols (Invitrogen) and used to co-infect Sf9 cells grown @ 27 °C in shaker flasks using Insect-XPRESS media (Lonza). Cells were harvested 48 hours post infection and frozen. For purification, pellets were thawed & resuspended in 5 volumes of Histrap buffer A (see below) and lysed […]
Superdex 200 (HiLoad 26/600), ResourceQ (6 mL) and finally a second Superdex 200 (HiLoad 26/600) column. All columns were from GE Healthcare and all purification steps were performed @ 4 °C. HisTrap buffer A: 50mM Tris (2-Amino-2-(hydroxymethyl)propane-1,3-diol), 500mM NaCl, 0.5mM TCEP ((tris(2-carboxyethyl)phosphine), 5% glycerol, pH 8.0. HisTrap Buffer B: + 250 mM imidazole. Superdex 200 buffer: 50mM Tris, 200mM NaCl, 0.5mM TCEP, 5% glycerol, pH 8.0. Resource Q buffer A: 50mM Tris, 0.5mM TCEP, 5% Glycerol, pH8.0. Resource Q buffer B + 1M NaCl.
California, USA) to prepare CRBN/DDB1 concentrations from 0.1 to 500 nM in 10 µL final assay volume containing 5 nM FP- […]
point prior to analysis. The KD was calculated using non-linear regression and a one-site specific binding model.
Analysis of competition assay FP-probe bound fraction […]
fb=probe bound fraction, KD=probe dissociation constant, L0=probe concentration, R0=protein concentration, Ki=ligand […]
CRBN/DDB1 Competition Assay
Compounds as solutions in DMSO were dispensed using an ECHO 550 Liquid Handler (Labcyte Inc).
Tracer controls (5 nM FP-probe S18 assay buffer only) and bound tracer controls (5 nM and 80 nM CRBN/DDB1) were included on each assay plate . Plates were incubated overnight at 4 °C before warming to room temperature and fluorescence polarization measured using an EnVision plate reader (Perkin -Elmer, Massachusetts, USA). IC 50 values […]
Table S2. CRBN/DDB1 Control Compounds

[2] = LogD7.4 determination by RP-HPLC; conditions: pH 7.4
[3] = Kinetic solubility determination by RP-HPLC; conditions: PBS, pH 7.4, aqueous buffer, kinetic from dmso stock
[4] = molecular target: T2, pirin (Homo sapiens, UniProt O00625); assay: Pirin SPR (surface plasmon resonance) binding
T2 sequence (O00625 1-290): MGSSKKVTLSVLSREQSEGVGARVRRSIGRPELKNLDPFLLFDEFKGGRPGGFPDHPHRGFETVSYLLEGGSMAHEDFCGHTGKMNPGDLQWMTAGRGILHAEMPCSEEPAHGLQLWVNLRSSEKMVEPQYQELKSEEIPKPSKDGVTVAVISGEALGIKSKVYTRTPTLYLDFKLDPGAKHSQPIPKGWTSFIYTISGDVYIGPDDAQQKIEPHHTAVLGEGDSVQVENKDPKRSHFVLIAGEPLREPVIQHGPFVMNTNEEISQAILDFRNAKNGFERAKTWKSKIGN

- IC50 ([1]; CRBN/DDB1 FP IC50, single repeat N=2, best-fit value, variable slope four parameters): 0.323 µM
- IC50 ([1]; best-fit value, variable slope four parameters, read-out: CRBN/DDB1 FP IC50, single repeat N=1): 0.715 µM
- IC50 ([1]; best-fit value, variable slope four parameters, read-out: CRBN/DDB1 FP IC50, single repeat N=3): 0.519 µM
- Ki ([1]; calculated from geometric mean CRBN-DDB1 IC50 and FP-probe KD): 0.12 µM
- IC50 ([1]; column statistics, read-out: CRBN/DDB1 FP pIC50, mean of 3 values (unrounded) (converted)): 0.493 µM
- IC50 ([1]; displacement of thalidomide derived fluorescent probe, geometric mean n = 3, read-out: CRBN/DDB1 FP IC50): 0.49 µM
- chromatographic logD [2]: 2.7
- solubility kinetic at 120 min [3]: 2 µM (≈ 1.89 µg/mL)
- Kd ([4]; Pirin SPR KD, equilibrium analysis, one site specific binding model, geometric mean n = 3): 0.055 µM
- Kd ([4]; Pirin SPR KD, representative single repeat, best-fit value, one site specific binding): 0.0563 µM
- Kd ([4]; Pirin SPR pKD, mean of 3 values (unrounded), column statistics): 0.0545 µM
- Increase in affinity for recombinant pirin compared to PDP 10 ([4]; SPR): 4.2 fold
- Measured Rmax/Theoretical Rmax ([4]; SPR): 0.39
Structure (SMILES): O=C1CCC(N2C(=O)c3cccc(OCCOCCOCCN4CCN(Cc5ccc6cc(C(=O)Nc7cc(NC(=O)c8ccc9c(c8)OCCO9)ccc7Cl)ccc6n5)CC4)c3C2=O)C(=O)N1 (stereo not shown) [PDP 16, N-(2-Chloro-5-(2,3-dihydrobenzo[b][1,4]dioxine-6-carboxamido)phenyl)-2-((4-(2-(2-(2-((2-(2,6-dioxopiperidin-3-yl)-1,3-dioxoisoindolin-4-yl)oxy)ethoxy)ethoxy)ethyl)piperazin-1-yl)methyl)quinoline-6-carboxamide]
